Experimental data reported in patent US8962003B2, “Insect behaviour modifying compounds” (The New Zealand Institute for Plant and Food Research …, priority 2003, dated 2015).

Tests used:
[1] = tested on: Frankliniella occidentalis; experiment: Y-tube olfactometer bioassay; type: in vivo; details: for MAC (%) = Minimum Active Concentration to elicit a response from thrips (P < 0.05): 1 µl undiluted or diluted in hexane; for % Response: percentage of thrips to walk up odour-laden arm: same cell prints a '(t value)' in brackets; for Behaviour-modifying activity towards Frankliniella occidentalis (in words): text statements (Table 2)
Protocol: The thrips behaviour-modifying activity of a compound may be evaluated in a glass Y-tube olfactometer following the method described by de Kogel et al. (de Kogel, W. J., Koschier, E. H. and Visser, J. H. Proc. Exper. & Appl. Entomol., N. E. V. Amsterdam, (1999) 10, 131-135.) and Koschier et al. (Koschier, E. H., De Kogel, W. J. and Visser, J. H. (2000) Jounrnal of Chemical Ecology, 26, 2643-2655).
The olfactory behaviour of thrips toward volatile compounds was evaluated in a glass Y-tube olfactometer following the method described by de Kogel et al. (de Kogel, W. J., Koschier, E. H. and Visser, J. H. Proc. Exper. & Appl. Entomol., N. E. V. Amsterdam, (1999) 10, 131-135.) and Koschler et al. (Koschier, E. H., De Kogel, W. J. and Visser, J. H. (2000) Journal of Chemical Ecology, 26, 2643-2655.). The Y-tube has two branching arms at an angle of 45° leading into a single tube, all 60 mm long, with an internal diameter of 5 mm. The arms of the Y-tube were connected to glass Wheaton Micro Kit® adapters that were in turn attached to 4 ml glass vials each containing a 1 cm^2 piece of filter paper (Whatman No. 1). The Y-tube and Wheaton apparatus were placed in a grey-box (to prevent external stimuli influencing thrips' behaviour), located in a darkened, air-conditioned room (22±3° C.). The Y-tube was placed at an inclining position of 25° between the Y-tube and horizontal plane and illuminated from above by a halogen lamp (780 lux). One microliter of the volatile compounds, either undiluted or diluted in hexane (95%, Pronalys AR), was applied to filter paper in one vial, while 1 μl of hexane was applied to filter paper held in the second vial. Air was drawn through activated charcoal before entering the Wheaton apparatus and Y-tube using a suction pump (AR Harris Co. Ltd, Christchurch) producing an airflow of 5 cm/s through each arm and 10 cm/s at the base of the Y-tube. Air was drawn through for 30 min before introducing the first thrips. Connections between the activated charcoal, Wheaton apparatus, Y-tube and suction pump consisted of silicone tubing.
An individual female Frankliniella occidentalis thrips of unknown age, that had been starved overnight, was released into the Y-tube using a small aspirator. The aspirator was made by placing a 1 ml pipette tip over the end of silicone tubing (5 mm diameter) the end of which was covered with fine mesh; the pipette tip was cut so it projected 5 mm beyond the end of the silicone tubing. A thrips was sucked up into the pipette tip, which was then placed at the base of the Y-tube. Most thrips walked up into the Y-tube within a few seconds, at which time the silicone air suction tubing was reconnected to the glass Y. The choice between clean or odour laden airflow was recorded when the thrips reached the far end of one arm and only those thrips that made the choice within 3 min were recorded. After every 5 thrips the Y-tube and Wheaton apparatus were rotated […] to avoid position effects. After 25 choices were recorded, the Y-tube and Wheaton apparatus were thoroughly cleaned with acetone (99.5%, BDH) and allowed to dry before repeating the experiment. Each compound and dilution was replicated 3 times.

[2] = tested on: Frankliniella occidentalis; details: MacDonald et al. 2002; cited from earlier work
[3] = tested on: Thrips obscuratus; experiment: Field trials with baited water traps; type: in vivo; details: for Average ratio of female thrips caught relative to water traps (95% CI): female Thrips obscuratus, field water traps, 1 ml compound, 24 or 48 h, * = P < 0.05 vs control trap, brackets = backtransformed 95% CI
From the text: (§1) Water traps were placed out into a field comprising several species of grasses, white clover (Trifolium repens L.) and several weed species (≈100 mm in height). Grass and cereal fields surrounded the field trial area on three sides and poplar (Poplar nigra L.) trees on the other, on the Canterbury Agricultural Research Centre campus. Each field trial consisted of five replicates of five treatments including a water control, positive control compound (ethyl nicotinate, ethyl isonicotinate, or benzaldehyde, Table 1) and three test compounds set out in the field in a grid (10×10 m) using a Latin square design with the trial area at least 100 m from the field boundary/shelter belt. White plastic containers (2 L capacity, 16×16×8.5 cm) containing approximately 1.7 L water, 0.4 ml of formalin (to prevent fungal growth) and 0.08 ml tween were placed above the crop canopy on inverted white (2 L capacity, 16×16×8.5 cm) or black plastic containers (24 cm diameter, 13 cm tall). For each treatment, 1 ml of a compound or water was added to a glass vial (12×32 mm screw thread vial) containing a 4.5 cm^2 piece of rolled filter paper (Whatman No. 1) that projected 1 cm above the top of the vial, creating a wick. The glass vial was suspended above the water in the centre of the trap using wire (0.5 mm diameter). The vials were removed after 24 or 48 h and the containers were sealed for transport to a laboratory. The contents from a water trap were poured through a sieve (250 μm mesh) and all insects were washed into a 50 ml Schott bottle within 24 h of collecting them from the field. All thrips were pipetted from each water trap sample and counted. Thrips were mounted on to slides using polyvinyl alcohol glue (1 part polyvinyl alchol: 4 parts water, 1 part lactic acid: 1.25 parts phenyl) from each trap using the following subsample method: less than 50 thrips, all thrips were mounted on to a slide; 50 to 100 thrips, a subsample of 25 thrips were mounted on to a slide; more than 100 thrips, a subsample of 50 thrips were mounted on to a slide. The slides were examined under 100× magnification using a compound microscope to identify thrips species. Subsampled thrips were sexed and identified to species according to Mound and Walker (Mound, L. A. and Walker, A. K. 1982. Terebrantia (Insecta: Thysanoptera). Fauna of New Zealand No. 1.). The mean number of each species for each treatment was calculated by multiplying the proportion of each species within a subsample with the total number of thrips counted in each water trap.

[4] = tested on: Frankliniella occidentalis; experiment: Greenhouse trials with water traps or yellow sticky traps; type: in vivo; details: 24 h, capsicum greenhouse, t-value in brackets in same cell
From the text: Greenhouse trials were undertaken using water traps similar to those used in the field trials (Example 2), or yellow sticky traps (Veg-Gro Supplies Ltd, Auckland) to examine the response of thrips to volatile compounds. The greenhouse, located in Auckland, is ≈88×200 m, constructed of glass, and is used to grow capsicum (Capsicum annuum var. Special, Fiesta, Boogie and Stirit). Water traps were placed 20 to 24 m apart within a row and 24 m apart between rows. There were 6 baited water traps for each compound tested and 6 water-only traps randomly positioned in a 6×2 grid in the greenhouse. Traps were positioned just above the crop canopy. Water traps (2 L containers, 16×16×8.5 cm) were assembled as described in Example 2 and left in the greenhouse for 24 h, after which time the containers were sealed for transport to a laboratory. Insects from each water trap were transferred to 5 ml glass tubes containing 75% ethanol within 24 h of collecting them from the greenhouse. Catches from each treatment were analysed under a stereomicroscope (100×) and the proportion of Frankliniella occidentalis was determined.
Yellow sticky traps (24.4×20 cm) were treated with a compound or water using a 30 ml spray mist dripulator (Arthur Holmes, Wellington) held 10 cm away from the sticky trap. Four sprays were applied to each side, coating the sticky trap in approximately 1 ml of water or compound. Sticky traps sprayed with the same treatment were separated using black metal foldback clips (19 mm, Celco), suspended within a cardboard box (29.5×22.3×30.2 cm), which was in turn sealed within a plastic bag for transport to the greenhouse. Traps were suspended in the greenhouse just above the crop canopy within 3 h after spraying, using the same layout as for the water traps (20 to 24 m apart within a row, 24 m between rows, in a 6×2 grid). After 24 h the traps were collected by wrapping each trap in plastic wrap for transport to the laboratory. The total number of thrips on the traps were counted using 10× magnification. Thrips were removed from the sticky traps using De-Solv-it® and Johnsons baby oil®. A subsample from each treatment was further analysed under a stereomicroscope (100×) and the proportion of Frankliniella occidentalis was determined.

[5] = tested on: Thrips tabaci; experiment: Field trials with baited water traps; type: in vivo; details: field trials (Table 1)
From the text: as §1

[6] = female Frankliniella occidentalis, Y-tube
[7] = female Frankliniella occidentalis
[8] = Yellow sticky trap, about 1 ml sprayed, >95% of thrips caught were Frankliniella occidentalis
[9] = Water trap, around 66% of thrips caught were Frankliniella occidentalis

| SMILES | MAC (%) = Minimum Active Concentration to elicit a response from thrips (P < 0.05) [1, 7] [%] | % Response: percentage of thrips to walk up odour-laden arm [1, 7] | Behaviour-modifying activity towards Frankliniella occidentalis (in words) [1] | also measured |
| --- | --- | --- | --- | --- |
| N#Cc1ccncc1 [4-Cyanopyridine] | <100 | 38.7 (0.026) % | thrips-repellant activity | Comment (repellant) [1, 6]: Repellant |
| O=Cc1ccncc1 [4-Formylpyridine] | 0.001 | 66.7 (0.002) % |  | Comment: concentration above which the compound is repellant ([1]; female Frankliniella occidentalis, Y-tube, no unit in the cell (MAC column is in %)): Repellant > 0.01; Activity towards Frankliniella occidentalis at high concentration ([1]; high concentration): repellant; Activity towards Frankliniella occidentalis at low concentration ([1]; low concentration): attractant |
| CC(=O)Sc1ccncc1 [4-Pyridyl thioacetate] | <100 | 26.7 (<0.001) % | thrips-repellant activity | Comment (repellant) [1, 6]: Repellant |
| CCCCCCCCCCOC(C)=O [Decyl acetate] |  |  |  | Repellant activity towards Frankliniella occidentalis (literature, alarm pheromones) [2]: repellant activity |
| CCCCCCCCCCOC(=O)c1ccncc1 [Decyl isonicotinate] |  |  |  | Average ratio of female thrips caught relative to water traps (95% CI) [3]: 14.9 (0.3, 739.5) |
| CC(C)N(C(=O)c1ccncc1)C(C)C [Di-iso-Propyl isonicotinate, diisopropyl isonicotinamide] | <100 | 81.3 (<0.001) % | attractant |  |
| CCOC(=O)c1ccnc(Cl)c1 [Ethyl 2-chloro-isonicotinate] | 0.0001 | 65.3 (0.005) % | strong attractant | Average ratio of thrips caught relative to water treated traps [4, 8]: 1.8 (2.8) |
| CCC(=O)c1ccncc1 [Ethyl 4-pyridyl ketone] | 1 | 68.0 (0.001) % |  | Attractancy to Thrips tabaci (in words) [5]: attractants |
| CCOC(=O)c1ccncc1 [Ethyl isonicotinate] | 0.001 | 60.0 (0.043) % |  | Average ratio of thrips caught relative to water treated traps [4, 9]: 2.2 (2.8); Average ratio of thrips caught relative to water treated traps [4, 8]: 2.6 (3.9) |
| CC(C)OC(=O)c1ccncc1 [Isopropyl isonicotinate] | 1 | 66.7 (0.002) % |  |  |
| CC(=O)c1ccncc1 [Methyl 4-pyridyl ketone] | 0.001 | 77.3 (<0.001) % |  | Average ratio of thrips caught relative to water treated traps [4, 8]: 3.1 (6.6); Attractancy to Thrips tabaci (in words) [5]: attractants; Average ratio of female thrips caught relative to water traps (95% CI) [3]: 0 (0.0, >1000) |
| COC(=O)c1ccncc1 [Methyl isonicotinate] | 0.0001 | 74.7 (<0.001) % |  | Average ratio of thrips caught relative to water treated traps [4, 9]: 4.3 (5.7); Average ratio of thrips caught relative to water treated traps [4, 8]: 3.7 (8.1) |
| c1cc(C2OCCO2)ccn1 [Pyridine, 4-(1,3-dioxalan-2-yl), 4-(1,3-Dioxolan-2-yl)pyridine] | 1 |  |  | Average ratio of female thrips caught relative to water traps (95% CI) [3]: 16.6 (0.3, 827.2) |
| CCCCCCCCCCCCOC(C)=O [dodecyl acetate] |  |  |  | Repellant activity towards Frankliniella occidentalis (literature, alarm pheromones) [2]: repellant activity |
| CCCCCCOC(=O)c1ccncc1 [hexyl isonicotinate] |  |  |  | Attractancy to Thrips tabaci (in words) [5]: not found to be significantly attractive; Attractancy to Thrips obscuratus (in words) [3]: not found to be significantly attractive |
| C=C(C)CCOC(=O)c1ccncc1 [isopentenyl isonicotinate] |  |  | not found to be significantly attractive or repulsive |  |
| CCCC(=O)c1ccncc1 [n-Propyl 4-pyridyl ketone] | 100 | 54.7 (0.282) % | attractant |  |
| CCCOC(=O)c1ccncc1 [n-Propyl isonicotinate] | 0.1 | 61.3 (0.026) % |  |  |
